Values quoted from earlier work as cited in patent publication US20080286341A1, “Buffered coated nicotine containing products” (priority 2007, published 2008).

Legend:
[1] = smoking a cigarette
[2] = from Handbook of Chemistry and Physics, 85th edition

Row | SMILES | time to reach the brain after inhalation [1] | pKa value (in interval 8.0-9.6) [2]
1 | CN1CCCC1c1cccnc1 (centres unmarked) [nicotine, 3-(1-methyl-2-pyrrolidinyl)-pyridine] | ten | 
2 | NC(=O)C[C@H](N)C(=O)O [Aspargine] |  | 8.73
